Literature values as cited in US9445940B2, “System and method for inducing hypothermia with control and determination of catheter pressure” (Zoll Circulation, Inc., priority 2003, dated 2016).

System: shivering threshold
Conditions: stated as believed, no experiment by the applicant

For `CCOC(=O)C1(c2ccccc2)CCN(C)CC1` [Meperidine], the “decrease of shivering threshold relative to vasoconstriction threshold” value is listed as “twice as much as the vasoconstriction threshold”.
